Assay results: patent US6395727B1, “Method of treating Bulimia Nervosa and related eating disorders by administration of atypical antipsychotic medications” (The Cincinnati Children's Hospital Research Foundation, priority 1999, dated 2002)
Like-named read-outs stand apart in the source and are kept apart here.

Legend:
Bulimia Nervosa [1] = system: Bulimia Nervosa
[2] = cited from earlier work
Bulimia Nervosa [3] = assay: therapeutic trial of an antidepressant (fluoxetine) before the risperidone trial, same patient; type: in vivo, human; conditions: fluoxetine 20 mg PO qam, approximately 4 months
[4] = some mammals; cited from earlier work
[5] = week four, risperidone 1.5 mg PO at bedtime, fluoxetine 20 mg PO QAM continued

Cc1nc2n(c(=O)c1CCN1CCC(c3noc4cc(F)ccc34)CC1)CCCC2 [risperidone, 3-[2-[4-(6-fluoro-1,2-benzisoxazol-3-yl)-1-piperidinyl]ethyl]-6,7,8,9-tetrahydro-2-methyl-4H-pyrido[1,2-a]pyrimidin-4-one]
cessation of symptoms (Bulimia Nervosa [1]; after two weeks, risperidone 0.5 mg PO twice per day, fluoxetine 20 mg PO QAM continued): has not had any cessation of symptoms | improvement in bulimic symptomatology (journal entries) (Bulimia Nervosa [1]; conclusion of 8-week study, risperidone 1.5 mg PO QHS plus fluoxetine): 50% | body image scores improved (Bulimia Nervosa [1]; conclusion of 8-week study, risperidone 1.5 mg PO QHS plus fluoxetine, self-rating scale): 50% | differences in baseline and final scores of the anxiety and depression scales (Bulimia Nervosa [1]; conclusion of 8-week study, risperidone 1.5 mg PO QHS plus fluoxetine, self-rating scales): no appreciable differences | reduction in bulimic symptomatology (patient's journal) (Bulimia Nervosa [1]; [5]): 30% | side effects to the medications (Bulimia Nervosa [1]; [5]): no side effects | weight gain ([2]; in vivo): minimal | white blood cell count ([2]; in vivo): remains unaffected

CNCCC(Oc1ccc(C(F)(F)F)cc1)c1ccccc1 (stereo not drawn) [fluoxetine]
bingeing and purging (Bulimia Nervosa [3]): has not subsided | depressive symptoms (Zung Depression Scores and self-report) (Bulimia Nervosa [3]): remission of depressive symptoms

Cc1cc2c(s1)Nc1ccccc1N=C2N1CCN(C)CC1 [Olanzapine, olanzapine]
weight gain ([2]; in some cases): up to 1 pound per week

OCCOCCN1CCN(C2=Nc3ccccc3Sc3ccccc32)CC1 [Quetiapine, quetiapine]
cataract formation [4]: cause cataract formation
